Experimental data published in patent US20250049713A1, “LIPID NANOPARTICLES FOR DELIVERY OF AGENTS” (Massachusetts Institute of Technology, priority 2023, published 2025).

Tested on: VE-cadherin (Cdh5) mRNA
Assay: In vivo endothelial Cdh5 gene silencing after intravenous siCdh5 LNP, tissue mRNA by RT-qPCR
Set-up: species or system mice
Details: for RNA delivery to endothelial cells vs DOTAP and EDMPC: formulation screening, summary statement
Text: Cadherin (Cdh5), also known as vascular endothelial cadherin (VE-cadherin) is a useful target gene to evaluate endothelial cell siRNA delivery in that Cdh5 expression is strictly limited to endothelial cells. By quantifying Cdh5 mRNA remaining in the tissues after siCdh5 administration, RNA delivery efficiency to endothelial cells can be evaluated.
Animal Experiments: All animal studies were approved by the MIT Institutional Animal Care and Use Committee (CAC) and were consistent with local, state, and federal regulations as applicable. All experimental procedures were performed with ethical compliance and approval under the guidelines for Division of Comparative Medicine by Massachusetts Institute of Technology. Female C57BL/6 mice (6 weeks) were obtained from Jackson Laboratory, housed in an MIT animal facility, and acclimated for at least 3 days before the initiation of a study.
For intravenous administration, siRNA-lipid nanoparticles diluted in PBS were injected […] using 29 g, 3/10 cc insulin syringes (BD Biosciences) after gentle warming of the animals using a heat lamp. For intramuscular administration, siRNA-lipid nanoparticles diluted in PBS were injected […] using 29 g, 3/10 cc insulin syringes (BD Biosciences).
48-72 hours after injection, organs or tissues including the heart, liver, spleen, lung, kidneys, muscle (quadriceps), and brain were collected and soaked in RNAlater solution (Thermo Fisher) for 12-48 hours at 4° C. and stored at −20° C. after the removal of RNAlater.
Tissue mRNA Quantification by RT-qPCR: Total RNA was isolated from tissues using the TRIzol (Thermo Fisher) and Direct-zol-96 MagBead (Zymo Research), or Quick-RNA MagBead (Zymo Research). Briefly, tissue punches were placed in a deep-well 96 well plate with 4-mm stainless beads and lysed with 350 μL TRIzol, or 250 μL DNA/RNA Shield (Zymo Reaearch) using a GenoGrinder2010. Total RNA was further purified using Direct-zol-96 MagBead (Zymo Research) or Quick-RNA MagBead (Zymo Research) according to the manufacturer's protocol.
cDNA was synthesized using ABI High Capacity cDNA Reverse Transcription Kit (Applied Biosystems #4368814) according to manufacturer instructions. Briefly, 5 μl of a master mix containing 1 μl 10X Buffer, 0.4 μl 25X dNTPs, 1 μl 10X Random primers, 0.5 μl Reverse Transcriptase, and 2.1 μl of water per reaction was added to 5 μl total RNA solution that was isolated using the above protocol. Plates were sealed, mixed, and incubated on a thermal cycler for 10 minutes at 25° C., followed by 2 hours at 37° C. and 5 minutes at 85° C.
Gene expression was analyzed in qPCR with Luna® Universal Probe RT-qPCR Kit (NEB) and Taqman probes-Cdh5 (Mm00486938_m1), and Gusb (Mm01197698_m1) or B2m (Mm00437762_m1). Samples were amplified using a LightCycler 480 qPCR machine (Roche). Cdh5 expression was normalized to B2m or Gusb.

[1] = Example 3: 20% cationic lipid LNPs, siCdh5 0.5 mg/kg i.v.

SMILES	delivery to endothelial cells among screened cationic lipids [1]	RNA delivery to endothelial cells vs DOTAP and EDMPC	endothelial delivery, DPTAP (16:0 TAP) vs DSTAP (18:0 TAP) [1]	endothelial delivery, EDMPC (14:0 EPC) vs EDLPC (12:0 EPC) [1]
CCCCCCCCCCCCCC(=O)OCCN(CCOC(=O)CCCCCCCCCCCCC)C(=O)C[N+](C)(C)C [DC-6-14, O,O′-ditetradecanoyl-N-(a-trimethylammonioacetyl) diethanolamine]	most efficacious delivery to endothelial cells	much more efficiently	–	–
CCCCCCCCCCCCCCCC(=O)OCC(C[N+](C)(C)C)OC(=O)CCCCCCCCCCCCCCC (centres unmarked) [DPTAP, 1,2-dipalmitoyl-3-trimethylammonium-propane]	most efficacious delivery to endothelial cells	much more efficiently	significantly more efficient endothelial delivery	–
CCCCCCCCCCCCCC(=O)OC[C@H](COP(=O)(OCC)OCC[N+](C)(C)C)OC(=O)CCCCCCCCCCCCC (some centres unmarked) [EDMPC, 1,2-dimyristoyl-sn-glycero-3-ethylphosphocholine]	–	–	–	more efficient endothelial delivery
CCCCCCCCCCCCCCCC(=O)OC[C@H](COP(=O)(OCC)OCC[N+](C)(C)C)OC(=O)CCCCCCCCCCCCCCC (some centres unmarked) [EDPPC, 1,2-dipalmitoyl-sn-glycero-3-ethylphosphocholine]	most efficacious delivery to endothelial cells	much more efficiently	–	–
